Among the data in patent publication US5684162A, “Leukotriene B4 antagonists” (G.D. Searle & Co., priority 1996, dated 1997) are IC50 values, retold here.

Test [1] has as its target T1, LTB4 Receptor (Homo sapiens, UniProt Q15722).
T1 construct: Neutrophils were purified from venous blood of normal human donors; endogenous in cells; host or cells: human peripheral blood neutrophils (>95% pure, normal donors)
The experiment in a line: LTB4 Receptor Binding Assay ([3H]LTB4, human neutrophils). Particulars: 0.6×10^-9 M (3H) LTB4, human neutrophils, 0° C., 45 minutes, pH 7.4. On the procedure: Preparation of Human Neutrophils
Neutrophils were purified from venous blood of normal human donors using standard techniques of dextran sedimentation, centrifugation on Ficoll-paque® (Pharmacia) or Histopaque® sterile solution (Sigma) and hypotonic lysis of erythrocytes (Boyum, A., Isolation of Leukocytes From Human Blood: Further Observations. Scand. J. Lab. Clin. Invest., 21 (Suppl. 97): 31, 1968).
LTB4 Receptor Binding Assay
Neutrophils (4-6×10^6) in 1 ml Hanks' balanced salt solution (HBSS) containing 10 mM HEPES buffer , pH 7.4 and […] nordihydroguaiaretic acid were incubated with 0.6×10^-9 M (^3 H) LTB4 in the presence or absence of test compounds. The incubation was carried out at 0° C. for 45 minutes and terminated by adding 5 ml of ice-cold HBSS followed by rapid filtration of the incubation mixture under vacuum through GF/C glass fiber filters. The filters were further washed with 10 ml HBSS and radioactivity was determined. Specific binding was defined as the difference between total binding and nonspecific binding which was not displaced by 10^-7 M unlabeled LTB4. All data refer to specific binding.

Test [2] deals with Human neutrophils. The experiment in a line: Modified Boyden Chamber Chemotaxis (LTB4-induced, human neutrophils). Format: cell-based. Particulars: Neutrophil; 3×10^-8 M LTB4, human neutrophils, 40-90 minute incubation at 37° C., pH 7.3. As to the method:
Modified Boyden Chamber Chemotaxis
Human neutrophils were isolated from citrated peripheral blood using standard techniques of dextran sedimentation, followed by centrifugation on Histopaque® sterile solution (Sigma) or Ficoll-paque® (Pharmacia) and hypotonic lysis of erythrocytes. A final cell suspension of 3.4×10^6 neutrophils/ml of HEPES-buffered Hanks' balanced salt solution (HBSS, pH 7.3) was added to the upper well (0.8 ml) of a modified Boyden chamber (blind well). The lower well (0.2 ml), separated by a polycarbonate membrane (Nucleopore Corp.), contained HBSS or 3×10^-8 M LTB4 in the presence or absence of test compound. Following a 40-90 minute incubation at 37° C. in 5% CO2 -95% air, cells from the lower well were lysed and nuclei counted in a Model S-Plus-IV Coulter Counter. The number of neutrophils migrating into the lower chamber in the absence of chemoattractant was subtracted from the number of cells migrating in the presence of a chemoattractant. Inhibition of chemotaxis by test compounds was expressed as percent inhibition relative to uninhibited control.

T1 sequence (Q15722 whole entry): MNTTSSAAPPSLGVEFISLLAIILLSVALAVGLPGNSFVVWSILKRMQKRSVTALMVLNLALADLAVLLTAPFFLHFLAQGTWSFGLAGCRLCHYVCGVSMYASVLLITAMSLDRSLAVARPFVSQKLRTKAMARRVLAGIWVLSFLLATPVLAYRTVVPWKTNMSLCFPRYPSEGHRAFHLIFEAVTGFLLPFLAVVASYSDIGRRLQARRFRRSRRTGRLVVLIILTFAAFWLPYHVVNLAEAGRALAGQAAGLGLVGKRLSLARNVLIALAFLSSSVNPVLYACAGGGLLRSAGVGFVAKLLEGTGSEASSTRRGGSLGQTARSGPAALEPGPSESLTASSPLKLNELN

For the compound `CCCc1c(OCCCOc2ccc(C(=O)NC)c(OC)c2CC2CC2)ccc2c1OC(CCC(=O)NS(=O)(=O)c1ccccc1)CC2` (stereo not drawn) [Example 5], the concentration for half-maximal inhibition (IC50) (commonly the concentration that gives 50% inhibition) in test [1] came to 2.1 nM; in test [2], 25 nM.

With `CCCc1c(OCCCOc2ccc(C(=O)NC)c(OC)c2CC2CC2)ccc2c1OC(CCC(=O)NS(=O)(=O)c1ccc(C)cc1)CC2` (stereo not drawn) [Example 6], the IC50 in test [1] is 3.7 nM; in test [2], 30 nM.

As for `CCCc1c(OCCCOc2ccc(C(=O)NC)c(OC)c2CC2CC2)ccc2c1OC(CCC(=O)NS(=O)(=O)c1ccccc1C)CC2` (stereo not drawn) [Example 7], the half-inhibitory concentration (IC50) in test [1] is 3 nM; in test [2], 23 nM.
